Data taken from paper PMC12168924, “Construction of the reduced nicotinamide adenine dinucleotide salvage pathway in artificial cells and its application in amino acid synthesis” (Chemical Science, 2025).

What was measured:
[1] = molecular target: T1, ribose-phosphate pyrophosphokinase (RPPK) (Mycobacterium tuberculosis, UniProt P9WKE3); assay: HPLC of AMP formation, inhibition at rising ADP; assay type: biochemical; conditions: inhibitor; assay per b47: R-5-P, ATP, MgCl2, 40 mM KH2PO4, Tris-HCl pH 8.0, 37 °C
T1 construct: gene prs

[2] = molecular target: T2, nicotinamide phosphoribosyltransferase (NAMPT) (Chitinophaga pinensis, UniProt A0A979FZM9); assay: HPLC of NMN formation; assay type: biochemical; conditions: PRPP made in situ by RPPK, 5 mM MgCl2, pH 8.0, 37 °C
T2 construct: gene Cpin_0607
T2 sequence (A0A979FZM9 1-471): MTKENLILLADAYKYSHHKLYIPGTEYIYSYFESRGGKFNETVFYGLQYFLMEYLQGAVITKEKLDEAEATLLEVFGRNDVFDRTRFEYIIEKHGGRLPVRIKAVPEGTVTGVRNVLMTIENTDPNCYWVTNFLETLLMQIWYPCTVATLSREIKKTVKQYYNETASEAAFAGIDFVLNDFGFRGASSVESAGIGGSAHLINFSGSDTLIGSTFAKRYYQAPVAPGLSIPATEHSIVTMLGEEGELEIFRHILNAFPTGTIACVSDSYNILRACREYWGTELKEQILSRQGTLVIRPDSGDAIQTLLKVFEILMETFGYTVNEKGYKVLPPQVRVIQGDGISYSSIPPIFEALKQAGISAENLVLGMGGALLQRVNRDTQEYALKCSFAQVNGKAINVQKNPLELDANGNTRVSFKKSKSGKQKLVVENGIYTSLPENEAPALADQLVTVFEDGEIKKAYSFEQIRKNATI

HPLC of NMN depletion = substrate: NC(=O)c1ccc[n+]([C@@H]2O[C@H](COP(=O)(O)O)[C@@H](O)[C@H]2O)c1; assay: HPLC of NMN depletion; assay type: biochemical, Acinetobacter baylyi; conditions: assay per b51: ATP, MgCl2, 40 mM KH2PO4, 50 mM Tris-HCl pH 8.0, 37 °C, kinetic details in supplement

T1 sequence (P9WKE3 whole entry): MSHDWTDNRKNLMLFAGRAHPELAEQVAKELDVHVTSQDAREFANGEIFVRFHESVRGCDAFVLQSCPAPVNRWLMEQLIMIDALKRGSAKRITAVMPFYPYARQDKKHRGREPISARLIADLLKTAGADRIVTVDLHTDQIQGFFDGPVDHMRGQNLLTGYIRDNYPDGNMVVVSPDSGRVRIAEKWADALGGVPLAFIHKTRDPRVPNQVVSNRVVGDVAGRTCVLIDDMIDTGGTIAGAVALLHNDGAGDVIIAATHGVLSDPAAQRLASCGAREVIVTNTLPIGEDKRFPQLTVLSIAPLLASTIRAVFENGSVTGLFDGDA

Which “HPLC of AMP formation, inhibition at rising ADP” value [1] does the source give for Nc1ncnc2c1ncn2[C@@H]1O[C@H](COP(=O)(O)OP(=O)(O)O)[C@@H](O)[C@H]1O [ADP] here?
Its value is “ADP was found to significantly inhibit RPPK activity”.

How did the “HPLC of NMN formation” value [2] turn out when O=P(O)(O)OC[C@H]1O[C@H](OP(=O)(O)OP(=O)(O)O)[C@H](O)[C@@H]1O [PRPP] was run?
Its value is “PRPP, an enzyme cascade was employed to synthesize PRPP for assessing NAMPT activity”.

B1: nicotinamide mononucleotide adenylyltransferase (NMNAT) (Acinetobacter baylyi ADP1) (protein)
chain: MYKFDYLVFIGRFQPFHFAHLQTIQIALQQSREVIIALGSAQPERNIKNPFLAEERQKMILANFSAEDQARIHFVNIIDVYNDQKWVEQVKQLVNAIIESRSHVGLIGHFKDESSYYLKLFPEWTMVELESLKESMSATPMREAYYEGKIIESAFPEGTIQFLKTFQDSEIYKQLQQKYRAQDSSNLI
With B1 as the molecule, how does the Km (HPLC of NMN depletion) read?
The Km was 396.6 ± 59.6 µM.
